The values below come from patent US8066972B2, “Altering memory by affecting staufen function” (Helicon Therapeutics, Inc., priority 2002, dated 2011).

The experiment deals with C57B1/6 male mice. The experiment is described as follows: Contextual fear conditioning (weak versus strong training), 4-day contextual memory scored as freezing, after intra-hippocampal infusion. The arrangement: effect on memory induced by strong training: dose or concentration left out as unconfirmed. The conditions noted are these: tested 4 days after training; for freezing responses: ANI 62.5 μg/2 μl per hippocampus immediately after training. Type of experiment: in vivo, mouse. On the procedure:
Ten to twelve week old C57B1/6 male mice (Taconic Laboratory, N.Y.) were used. Mice were housed in groups of four in standard mouse cages and kept in a 12:12 light-dark cycle and constant temperature (22° C.) in a humidity and ventilation-controlled animal house. With the exception of surgery, training and testing times, the mice had ad lib access to food and water. Animals were acclimatized to animal house environment for a week before surgery. On a day of surgery, mice were anesthetized with 20 mg/kg Avertin and implanted with a 26-gauge guide double cannula aimed at the dorsal hippocampus using a stereotaxic apparatus (Korf Instruments, Calif.; coordinates: P=1 mm; 5 mm to a depth 1-1.2 mm; Franklin and Paxinos, The Mouse Brain In Stereotaxis Coordinates, Academic Press, San Diego, Calif. (1997)). After the end of surgery, animals were individually maintained in a cage with ad lib access to food and water. Seven days after recovery from surgery, animals were trained for contextual fear conditioning.
The basic fear conditioning procedures and equipment remained as described (Bourtchuladze, R. et al., Cell, 79:59-68 (1994); and Bourtchouladze et al., Learn Mem., 5(4-5):365-374 (1998)). On the training day, the mouse was placed in the conditioning chamber (Med Associates) for 2 minutes before the onset of unconditioned stimulus (US) of 0.5 mA, two seconds shock. For weak training, US was repeated two times with a one minute inter-trial interval between shocks. For strong training, 5 USs were given. Training was automated and performed by computerized software package (Med Associates).
Thirty seconds after the end of the last trial, the mouse was returned to its home cage. The conditioning chamber was cleaned with 75% ethanol and then with water. Contextual memory was tested four days after training by scoring freezing responses. Freezing was assessed with a sampling method. That is, 2 second observations were taken every 5 seconds (Bourtchuladze, R. et al., Cell, 79:59-68 (1994); Bourtchouladze et al., Learn Mem., 5(4-5):365-374 (1998); and Frankland, P. W. et al., Behav. Neurosci., 112:863-874 (1998)). A mouse was detminined to be freezing when it adopted a motionless posture, refraining from all but respiratory movements.
For each training and drug-injecting procedure, an experimentally nave group of animals was used. The observations were made by an experimenter unaware of the experimental treatment of the mice. In each experiment, both training and testing were videotaped. Experiments were analyzed with an analysis of variance (ANOVA) and t-tests.
Anisomycin (ANI) (Sigma) was dissolved in 0.9% saline, and the pH was adjusted with 1 N HCl to 7.4. Control animals received injections of saline. Mice were injected in the hippocampus (62.5 μg/2 μl per hippocampus) immediately after training. Infusions were made through the guide cannula using a 33-gauge injection needle. The needle was connected via a polyethylene tube to a microsyringe fixed in the pump 11 (Harvard Instruments). The entire infusion procedure took 2 minutes and animals were freely moving during this time in the home cage. Experiments were replicated 2 times and for each training procedure, an experimentally nave group of animals was used (n=47 total).
Mouse antisense oligodeoxynucleotides (ODNs) directed against CREB mRNA (5′-T-s-g-s-g-s-T-C-A-T-T-g-T-T-A-C-C-g-s-g-s-T-s-g-3′) (SEQ ID NO:1) was used to disrupt hippocampal CREB protein levels. Control groups received infusions of ODN of the same base composition but in randomized order (scrambled CREB: 5′-g-s-T-s-C-s-T-g-T-A-g-T-C-g-A-T-C-T-A-T-s-g-s-g-s-T3′) (SEQ ID NO:2). ODNs were administered into the hippocampus (2 nmol/2 μl per hippocampus) as described above for ANI-infusion. CREB ODNs were infused 20 hours before training. Experiments were replicated 3 times and for each training procedure, an experimentally nave group of animals was used (n=54 total). […]

On to `COc1ccc(C[C@H]2NC[C@H](O)[C@H]2OC(C)=O)cc1` [ANI, Anisomycin], for which the freezing responses was found to be 28.42±4.9% (strong training (5 USs)) and 17.1±4.3% (weak training (2 USs)). The “effect on memory induced by weak training” value (ANI 62.5 mg/2 μl per hippocampus immediately after training, weak training, vs vehicle) is “significantly impaired memory”. The “effect on memory induced by strong training” value (ANI per hippocampus immediately after training, strong training, vs vehicle) is “significantly impaired memory”.

Turning to `COc1ccc(C2CNC(=O)C2)cc1OC1CCCC1` (centres unmarked) [Rolipram], the “effect on memory induced by weak training” value runs as follows: (Rolipram 0.03 ng into hippocampus, weak training (2 trials)) “had no memory enhancing effect”; (Rolipram 3 ng into hippocampus, weak training (2 trials)) “produced memory enhancing effect”; (Rolipram 30 ng/1 μl per hippocampus immediately after training, 2 trials, vs vehicle) “significantly enhanced the amount of memory”. For the same compound, where the note is “Rolipram 30 ng/1 μl per hippocampus immediately after training, 5 trials, vs vehicle”, the “effect on maximal memory levels produced by strong training” value is reported as “had no effect”.
